According to patent publication US9290476B2, “Methylene linked quinolinyl modulators of RORγt” (Janssen Pharmaceutica NV, priority 2012, dated 2016):
Where a name gives a salt, the structure may show the parent alone. Read-outs that look alike come from different tables or passages of the source.

Legend:
[1] = molecular target: human RORγt ligand binding domain (RORγt LBD) (Homo sapiens (Human), UniProt P51449); test: RORγt ThermoFluor assay (thermal shift binding affinity); conditions: estimated from thermal shift
Sequence of human RORγt ligand binding domain (RORγt LBD) (P51449 other isoform, or with tags, fused parts or gaps): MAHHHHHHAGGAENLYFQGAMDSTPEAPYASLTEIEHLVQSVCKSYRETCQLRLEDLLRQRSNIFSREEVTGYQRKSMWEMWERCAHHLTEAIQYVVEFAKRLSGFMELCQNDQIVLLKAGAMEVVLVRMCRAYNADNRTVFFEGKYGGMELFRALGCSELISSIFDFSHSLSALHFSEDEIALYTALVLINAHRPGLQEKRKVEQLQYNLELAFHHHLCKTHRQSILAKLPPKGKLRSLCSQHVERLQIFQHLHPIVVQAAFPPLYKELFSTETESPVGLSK
Procedure, shortened: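 Thermal shift used 0.065 mg/mL RORγt LBD with 60 μM 1,8-ANS in 100 mM Hepes pH 7.0, 10 mM NaCl, 2.5 mM GSH and 0.002% Tween-20, heated at 1 °C/min. Fluorescence was excited at 380–400 nm and emission read at 500 nm.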

human RORγt LBD = human RORγt LBD (Homo sapiens (Human), UniProt P51449); test: RORγt reporter assay (GAL4-RORγt LBD luciferase in HEK293T cells); assay type: cell-based; conditions: for IC50 / RORγt reporter Assay, % inhibition @ 6 μM: HEK293T cells; for IC50: 24 hours compound treatment; for inhibition at 6 µM: HEK-293T, read-out: RORγt reporter Assay, % inhibition @ 6 μM, HEK293T cells, 6 μM
Sequence of human RORγt LBD (P51449 258-518): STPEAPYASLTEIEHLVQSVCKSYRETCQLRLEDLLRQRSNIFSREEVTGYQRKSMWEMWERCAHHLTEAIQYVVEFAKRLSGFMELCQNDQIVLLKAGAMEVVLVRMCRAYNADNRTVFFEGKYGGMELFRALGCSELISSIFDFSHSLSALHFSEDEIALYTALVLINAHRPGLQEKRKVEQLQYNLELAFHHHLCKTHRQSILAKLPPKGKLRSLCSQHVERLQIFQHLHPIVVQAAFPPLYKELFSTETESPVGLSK
Procedure, shortened: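 HEK293T cells transiently co-transfected with GAL4-DBD–wild-type human RORγt LBD (pBIND) and GAL4-responsive firefly luciferase reporter (pGL4.31); renilla luciferase from pBIND normalises transfection/viability. Cells in phenol-red-free DMEM, 5% lipid-reduced FCS, treated with compound 24 h. Firefly/renilla ratio plotted against compound concentration.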

[2] = system: IL-17 production by CD4 T cells; test: Human Th17 assay (IL-17 production by CD4 T cells under Th17 differentiation); assay type: cell-based; conditions: human CD4+ T cells, IL-17 after 3 days, read-out: Human Th17 Assay, IC50 μM
Procedure, shortened: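 Healthy-donor peripheral CD4+ T cells (1.5×10^5/well) preincubated 1 h with titrated compound (0.2% DMSO), then differentiated with anti-CD3/CD28 beads, anti-IL4, anti-IFNγ, IL1β, IL23, IL6, TGFβ and IL2 for 3 days at 37 °C. Supernatant IL-17 quantified by MSD electrochemiluminescence against a standard curve; IC50 fitted.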

Row | Kd [1] [nM] | IC50 (human RORγt LBD) [µM] | inhibition at 6 µM (human RORγt LBD) [%] | IC50 [2] [µM] | IC50 ([2]; Homo sapiens, CD4+ T, 72 h) [µM] | RORγt reporter Assay, % inhibition @ 6 μM (human RORγt LBD) [%] | SMILES
1 | 1.4 | 0.0059 | 98 | 0.0034 |  |  | COc1nc2ccc(C(O)(c3cnnn3C)C3CN(C(C)=O)C3)cc2c(Cl)c1Cc1ccc(C(F)(F)F)cc1 (single isomer, unassigned) [Example 97B, 1-(3-((4-Chloro-2-methoxy-3-(4-(trifluoromethyl)benzyl)quinolin-6-yl)(hydroxy)(1-methyl-1H-1,2,3-triazol-5-yl)methyl)azetidin-1-yl)ethanone]
2 | 18 | 0.35 | 72 |  | 0.59 |  | Cn1cncc1C(O)(c1ccc(Cl)cc1)c1ccc2nc(Cl)c(Cc3ccccc3)c(Cl)c2c1 (centres unmarked) [Example 1, (3-Benzyl-2,4-dichloroquinolin-6-yl)(4-chlorophenyl)(1-methyl-1H-imidazol-5-yl)methanol]
3 | 34 | 0.31 |  | 0.13 |  | 99 | COc1nc2ccc(C(O)(c3ccc(C(F)(F)F)nc3)c3cncn3C)cc2c(C#N)c1Cc1ccc(-n2cccn2)cc1 (single isomer, unassigned) [Example 73C, 3-(4-(1H-Pyrazol-1-yl)benzyl)-6-(hydroxy(1-methyl-1H-imidazol-5-yl)(6-(trifluoromethyl)pyridin-3-yl)methyl)-2-methoxyquinoline-4-carbonitrile]
4 | 7.8 | 0.028 | 100 |  | 0.12 |  | COc1nc2ccc(C(O)(c3ccc(C(F)(F)F)nc3)c3cncn3C)cc2c(Cl)c1Cc1cc2ccccc2s1 (centres unmarked) [Example 37A, (3-(Benzo[b]thiophen-2-ylmethyl)-4-chloro-2-methoxyquinolin-6-yl)(1-methyl-1H-imidazol-5-yl)(6-(trifluoromethyl)pyridin-3-yl)methanol.TFA]
5 | 6.5 | 0.16 |  | 0.048 |  | 95 | COc1nc2ccc(C(O)(c3ccc(C(F)(F)F)nc3)c3cncn3C)cc2c(Cl)c1Cc1ccc(C(F)(F)F)nc1 (single isomer, unassigned) [Example 94C, (4-Chloro-2-methoxy-3-((6-(trifluoromethyl)pyridin-3-yl)methyl)quinolin-6-yl)(1-methyl-1H-imidazol-5-yl)(6-(trifluoromethyl)pyridin-3-yl)methanol]
6 | 0.017 | 0.16 | 87 |  | 0.01 |  | COc1nc2ccc(C(O)(c3cnc(C)n3C)c3cnc(C)n3C)cc2c(Cl)c1Cc1ccc(C(F)(F)F)cc1 [Example 93, (4-Chloro-2-methoxy-3-(4-(trifluoromethyl)benzyl)quinolin-6-yl)bis(1,2-dimethyl-1H-imidazol-5-yl)methanol]
7 | 1.4 | 0.017 |  | 0.0086 |  | 97 | Cn1cncc1C(O)(c1ccc(C(F)(F)F)nc1)c1ccc2nc(N3CCC3)c(Cc3ccc(C(F)(F)F)cc3)c(Cl)c2c1 (single isomer, unassigned) [Example 92C, (2-(Azetidin-1-yl)-4-chloro-3-(4-(trifluoromethyl)benzyl)quinolin-6-yl)(1-methyl-1H-imidazol-5-yl)(6-(trifluoromethyl)pyridin-3-yl)methanol]
8 | 10 | 0.058 | 100 |  | 0.04 |  | OC(c1cccnc1)(c1cccc(F)c1)c1ccc2nc(Cl)c(Cc3ccc(-n4cccn4)cc3)c(Cl)c2c1 (centres unmarked) [Example 48, (3-(4-(1H-Pyrazol-1-yl)benzyl)-2,4-dichloroquinolin-6-yl)(3-fluorophenyl)(pyridin-3-yl)methanol]
9 | 48 | 0.16 | 97 | 0.05 |  |  | COc1nc2ccc(C(O)(c3ccc(C#N)cc3)c3cncn3C)cc2c(C#N)c1Cc1ccc(C(F)(F)F)cc1 (single isomer, unassigned) [Example 96B, 6-((4-cyanophenyl)(hydroxy)(1-methyl-1H-imidazol-5-yl)methyl)-2-methoxy-3-(4-(trifluoromethyl)benzyl)quinoline-4-carbonitrile]
10 | 4.4 | 0.14 | 106 |  | 0.098 |  | COc1nc2c(OC)cc(C(O)(c3ccc(C(F)(F)F)nc3)c3cncn3C)cc2c(Cl)c1Cc1ccc(-n2cccn2)cc1 (single isomer, unassigned) [Example 59B, (3-(4-(1H-pyrazol-1-yl)benzyl)-4-chloro-2,8-dimethoxyquinolin-6-yl)(1-methyl-1H-imidazol-5-yl)(6-(trifluoromethyl)pyridin-3-yl)methanol]
11 | 0.56 | ~0.004 | 98 |  | 0.012 |  | CCc1nc2ccc(C(O)(c3cnnn3C)C3CN(C(C)=O)C3)cc2c(Cl)c1Cc1ccc(C(F)(F)F)cc1 (single isomer, unassigned) [Example 90B, 1-(3-((4-Chloro-2-ethyl-3-(4-(trifluoromethyl)benzyl)quinolin-6-yl)(hydroxy)(1-methyl-1H-1,2,3-triazol-5-yl)methyl)azetidin-1-yl)ethanone]
12 | 64 | 0.19 | 103 |  | 0.28 |  | COc1nc2ccc(C(O)(c3ccc(Cl)cc3)c3cncn3C)cc2c(Cl)c1Cc1ccc(S(C)(=O)=O)cc1 (centres unmarked) [Example 31, (4-Chloro-2-methoxy-3-(4-(methylsulfonyl)benzyl)quinolin-6-yl)(4-chlorophenyl)(1-methyl-1H-imidazol-5-yl)methanol.TFA]
13 | 33 | 0.11 | 103 |  | 1.8 |  | OC(c1cccnc1)(c1cccc(Cl)c1)c1ccc2nc(Cl)c(Cc3cccs3)c(Cl)c2c1 (centres unmarked) [Example 32, (3-Chlorophenyl)(2,4-dichloro-3-(thiophen-2-ylmethyl)quinolin-6-yl)(pyridin-3-yl)methanol.TFA]
14 | 130 | 0.26 |  | 0.3 |  | 103 | Cn1cncc1C(O)(c1ccc(Cl)cc1)c1ccc2nc(C#N)c(Cc3ccc(-n4cccn4)cc3)c(C#N)c2c1 (single isomer, unassigned) [Example 71C, 3-(4-(1H-Pyrazol-1-yl)benzyl)-6-((4-chlorophenyl)(hydroxy)(1-methyl-1H-imidazol-5-yl)methyl)quinoline-2,4-dicarbonitrile]
15 | 30 | 0.21 |  | 0.2 |  | 100 | Cn1cncc1C(O)(c1ccc(C(F)(F)F)nc1)c1ccc2nc(N3CCC3)c(Cc3ccc(-n4cccn4)cc3)c(Cl)c2c1 (single isomer, unassigned) [Example 68C, (3-(4-(1H-pyrazol-1-yl)benzyl)-2-(azetidin-1-yl)-4-chloroquinolin-6-yl)(1-methyl-1H-imidazol-5-yl)(6-(trifluoromethyl)pyridin-3-yl)methanol]
16 | 0.64 | ~0.004 |  | 0.015 |  | 99 | COc1nc2ccc(C(O)(c3cnnn3C)C3CN(C(C)=O)C3)cc2c(Cl)c1Cc1ccc(C(F)(F)F)cc1 (single isomer, unassigned) [Example 97C, 1-(3-((4-Chloro-2-methoxy-3-(4-(trifluoromethyl)benzyl)quinolin-6-yl)(hydroxy)(1-methyl-1H-1,2,3-triazol-5-yl)methyl)azetidin-1-yl)ethanone]
17 | 3.5 | 0.11 |  | 0.15 |  | 102 | COc1nc2ccc(C(O)(c3ccc(C(F)(F)F)nc3)c3cncn3C)cc2c(Cl)c1Cc1cc2ccccc2s1 (single isomer, unassigned) [Example 37C, (3-(benzo[b]thiophen-2-ylmethyl)-4-chloro-2-methoxyquinolin-6-yl)(1-methyl-1H-imidazol-5-yl)(6-(trifluoromethyl)pyridin-3-yl)methanol]
18 | 40 | 0.18 | 98 |  | 0.1 |  | COc1nc2ccc(C(O)(c3ccc(Cl)cc3)c3cncn3C)cc2c(Cl)c1Cc1cc2ccccc2s1 (centres unmarked) [Example 36A, (3-(Benzo[b]thiophen-2-ylmethyl)-4-chloro-2-methoxyquinolin-6-yl)(4-chlorophenyl)(1-methyl-1H-imidazol-5-yl)methanol]
19 | 4.2 | 0.046 |  | 0.045 |  | 100 | Cc1cc(C(O)(c2ccc(C(F)(F)F)nc2)c2cncn2C)cc2c(C#N)c(Cc3ccc(-n4cccn4)cc3)c(C#N)nc12 (single isomer, unassigned) [Example 65C, 3-(4-(1H-pyrazol-1-yl)benzyl)-6-(hydroxy(1-methyl-1H-imidazol-5-yl)(6-(trifluoromethyl)pyridin-3-yl)methyl)-8-methylquinoline-2,4-dicarbonitrile]
20 | 68 | 0.13 | 103 |  | 0.1 |  | OC(c1ccc(Cl)cc1)(c1cccnc1)c1ccc2nc(Cl)c(Cc3ccc(-n4cccn4)cc3)c(Cl)c2c1 (centres unmarked) [Example 45, (3-(4-(1H-Pyrazol-1-yl)benzyl)-2,4-dichloroquinolin-6-yl)(4-chlorophenyl)(pyridin-3-yl)methanol]
